These results are taken from patent US20230096781A1, “METHODS OF CONTROLLING BODYWEIGHT BY MODULATING PHOSPHATIDYLINOSITOL 5-PHOSPHATE 4-KINASE BETA ACTIVITY” (University of Cincinnati, priority 2020, published 2023).

Each structure is given as a SMILES string.

Experiment [1] concerns WT-PI5P4Kβ-expressing Pip4K2b^−/− cells. The experiment is described as follows: Lysotracker staining of serum-starved MEFs (lysosomal acidification). The class given is cell-based, mouse.
For experiment [2], the system named is isogenic Pip4K2b^−/− cells. The experiment is described as above. The class given is cell-based, mouse. The note with it: 10 μM MPA or 20 μM Link17.

In the case of `COc1c(C)c2c(c(O)c1C/C=C(\C)CCC(=O)O)C(=O)OC2` [MPA, mycophenolic acid], the “lysosomal acidification (lysotracker staining)” value in experiment [1] (10 μM MPA or 20 μM Link17) is “suppressed lysosomal acidification”; in experiment [1] (10 μM MPA or 20 μM Link17, listed as mycophenolic acid) it was “had a deacidification effect”; in experiment [2], “not”.
